Measurements as given in a melting point compilation (Tetko et al.; mined from patent text by program, amines drawn as free bases though some values may be those of a salt).

| melting point [°C] | Compound |
| --- | --- |
| 140 to 147 | NS(=O)(=O)c1ccsc1C1=CC(=O)CCC1 |
| 145 to 147 | O=C(O)C=CC(=O)c1ccc(Oc2ccccc2Cl)cc1 |
| 88.2 to 89.5 | CC1=C(C(O)c2ccc3c(c2)CN(C(N)=O)CC3)C(C)(C)CCC1 (stereo not given) |
| 152 to 154 | CC(=O)Nc1cc(N2CCCC2)c2c(Cl)ccc3c2c1C(=O)N(O)C3=O |
| 197 to 199 | COc1ccc(-c2ccc(C(=O)Nc3ccc4nc(CN5CCCC5)ccc4c3)cc2)cc1 |
| 90 | CC(SC1COC(c2cccc(C(=O)Nc3ccc(Cl)cc3)c2)OC1)C(O)(Cn1cncn1)c1ccc(F)cc1F (stereo not given) |
| 139 to 140 | CCOC(=O)C(=O)Nc1ccc2ccccc2c1[N+](=O)[O-] |
| 105 to 110 | CC(=O)N1CCC2(CC1)CC(=O)c1cc(S(C)(=O)=O)ccc1O2 |
| 225 to 229 | NC(=O)c1sc2c(Cl)cccc2c1Cl |
| 226 | OC1CSC(Oc2cnc(-c3ccncc3)c(Cl)c2)C(O)C1O (stereo not given) |
| 152 to 153 | OC(CCl)Cn1c2ccccc2c2cc(-c3ccc4c(c3)c3ccccc3n4CC(O)CCl)ccc21 (stereo not given) |
| 133 | CCOc1cc(N)nc(Cl)n1 |
| 60 | CSc1c(S)c(SC)c(SC)c(SC)c1SC |
| 178 | Cn1ccc2c1Cc1nncn1C=C2 |
| 143 to 144 | CCCCOC(=O)C(NC(=O)OCc1ccccc1)c1ccc(O)cc1 (stereo not given) |
| 159 to 160 | N#CNC(=NC1CCN(Cc2ccccc2)CC1)NC1CCc2ccccc21 (stereo not given) |
| 205 to 207 | CCC(CC)c1ccc(Cl)c2nc(Nc3c(C)cc(Cl)cc3OC)n(CC(=O)OC(C)C)c12 |
| 149 to 150 | COc1cc2ncnc(N3CCN(C(=S)Nc4ccc(S(=O)(=O)N5CCCCC5)cc4)CC3)c2cc1OC |
| 227 to 230 | Cc1c(Sc2ccccc2S(C)(=O)=O)c2cc(NS(C)(=O)=O)ccc2n1CC(=O)O |
| 135 to 137 | COC(=O)C[C@@H](CC(=O)/C=C/c1c(-c2ccc(F)cc2)c(-c2ccc(F)cc2)c(C(=O)Nc2cccc(C(=O)N(C)C)c2)n1C(C)C)O[Si](C)(C)C(C)(C)C |
| 116 | CC1(C)COc2ccc(C(F)(F)F)cc2C(O)(c2ccccn2)C1 (stereo not given) |
| 145 to 148 | O=c1[nH]c2cccnc2n1CCCO |
| 38 to 40 | CON=CC1CCCN(OC(=O)c2ccccc2)C1 (stereo not given) |
| > 250 | Nc1ccc(-c2ccc(-c3nc(N)nc(N)n3)cc2)cc1 |

| melting point [°C] | Compound |
| --- | --- |
| 118 to 120 | O=C(CN1CCC(n2c(=O)[nH]c3ccccc32)CC1)c1ccc(OCc2ccccc2)c(OCc2ccccc2)c1 |
| 144 to 145 | c1cc(-n2cccc2)cc(-n2cnc3cc(-c4ccoc4)ccc32)c1 |
| 229 to 230 | CC(=O)Nc1cnn2c1-c1ccccc1N(NC(C)=O)C2(C)C |
| 202 to 203 | CC(Cl)(Cl)C(NC(=O)c1cc(F)cc(F)c1)NC(=NC#N)Nc1ccc(C(F)(F)F)nc1 (stereo not given) |
| 200 | COCCO[C@@H]1c2ccc3c(nc(C)n3C)c2O[C@H](c2ccccc2)[C@H]1OC(=O)COC |
| 124 to 126 | CC(C)c1cc(-c2ccccc2)nc(-c2ccc(F)cc2)c1C=C(Br)Br |
| 218 | Cc1ccc(C2(O)CCN(CCCN3c4cccc5cccc(c45)S3(=O)=O)CC2)cc1 |
| 92 | Cn1cc(C=O)cc1C(=O)OC(C)(C)C |
| 100 to 102 | Cc1nnc(C)c(-c2c(F)cc(F)cc2F)c1-c1cccs1 |
| 68 to 69 | CC(C)(COCc1cccc(Oc2ccccc2)c1)c1ccc(O)c(Cl)c1 |
| 257 to 259 | O=C1Nc2ccc(F)cc2C12COc1cc3c(cc12)CCO3 (stereo not given) |
| 196 to 198 | C=CCNc1cc(C)nc2c(C)n[nH]c12 |
| 106 to 107 | COc1ccc(-c2cc3c(OC)cc(OC)cc3nc2OC)cc1 |
| 108 to 110 | CCc1cccc(CC)c1NC(=S)NC(C)C |
| 170 to 190 | COc1cc(CCCN(C)Cc2ccc(OC)c(OC)c2)ccc1NC(=O)c1cccc2c(=O)c3cccc(F)c3[nH]c12 |
| 124 to 127 | CC(=O)c1c[nH]c(C)n1 |
| 88 to 89 | Cc1c(C)c2c(c(C)c1OCc1ccccn1)C(c1ccc(C(C)C)cc1)C(C)(C)O2 (stereo not given) |
| 103 to 104 | O=C(O)CCC(CC1(C(=O)NC2CCC(C(=O)OCc3ccccc3)CC2)CCCC1)C(=O)OCc1ccccc1 (stereo not given) |
| 117 to 119 | COc1ccc(S(=O)(=O)C(CC=C(C)C)(Cc2cccnc2)C(=O)O)cc1 (stereo not given) |
| 105 to 106 | C=CC(=O)NC(C(=O)OCC)C(=O)OCC |
| 218 to 220 | CC(C)NC(=O)OCC1CSC2=C(O1)c1ccccc1C(=O)C2=O (stereo not given) |
| 168 to 170 | COc1ccc(OC)c2c1COC2=O |
| 74 to 78 | Cc1ccc(C(=O)OCn2c(Br)c(Br)c(S(=O)(=O)C(F)(F)F)c2-c2ccc(Cl)cc2)cc1 |
| 148 to 149 | CC(C)C(=O)NCCNCC(O)COc1ccc(O)c(CO)c1 (stereo not given) |

| melting point [°C] | Compound |
| --- | --- |
| 133 | CC(=O)Nc1ccc(C=O)cc1F |
| 116 to 119 | CC1(O)CC(=O)OC(CCc2ccc(Cl)cc2)C1Br (stereo not given) |
| 333 to 334 | C[C@H](NC(=O)c1c[nH]c2ncc(-c3ccc(C(=O)NC4CCOCC4)s3)nc12)C(C)(C)C |
| 175 | C=C(C)CN1Cc2cc(Cl)cc3[nH]c(=O)n(c23)CC1C (stereo not given) |
| 160 to 164 | O=C(NCc1ccc([N+](=O)[O-])cn1)C(c1ccccc1)c1ccccc1 |
| 104 to 105 | Fc1ccc(-n2ncc3c2-c2ccccc2C3)cc1 |
| > 200 | Cc1ccc(S(=O)(=O)N(CCc2cccs2)CC(=O)N[C@@H](Cc2ccccc2)C(=O)O)cc1 |
| 75 to 76 | COCC(C)N(Cc1ccc(OC)c(OC)c1)C(=O)C(Cl)Cl (stereo not given) |
| 132 to 133 | COc1ccc(-c2nc(Cl)n(C)c2-c2ccc(OC)cc2)cc1 |
| 167 to 168 | CS(=O)(=O)N(c1nc(CN2CCN(C(c3ccccc3)c3ccccc3)CC2)cs1)S(C)(=O)=O |
| 284 to 285 | CN1CCN(C)c2nc(c3ccccc3n2)NCC2CCCC(CNc3nc1nc1ccccc31)C2 |
| 182 to 184 | CCc1nn(C2CCCC2)c2cc(C(=O)NCC(=O)O)ccc12 |
| 94 | CCCN(CCC)C(=O)n1cnc(S(C)(=O)=O)n1 |
| 162 to 164 | COC1OCC[C@@H]1NC(=O)CN(CC(C)C)C(=O)CNC(=O)COc1ccc2c(c1)Nc1ccccc1S2 (stereo not given in full) |
| 128 to 130 | CN1CCc2c(c3ccccc3n2CCc2nc(-c3ccccc3)cs2)C1 |
| 192 to 195 | O=C(NCCO)C1=CNc2cccnc2S1 |
| 59 to 60 | CCCc1cc(=O)n2cccc(C)c2n1 |
| 161 | CCC(CCOc1ccc(-c2ccc(C(=O)O)cc2)cc1-c1ccc2c(c1)C(C)(C)CCC2(C)C)NC1CC1 (stereo not given) |
| 99 to 100 | CCCOc1cc(CC)c(C(=O)OC)c(C(=O)O)c1 |
| 125 to 130 | O=C(NCC12CC3CC(CC(C3)C1)C2)c1cc(-c2cccnc2N2CCCC(C(=O)O)C2)ccc1Cl (stereo not given) |
| 180 to 181 | CCOC(=O)CCCCCOc1ccc(C(=O)Nc2ccccc2S(=O)(=O)c2ccccc2-c2nnn[nH]2)cc1 |
| 82 to 83 | CCCn1nnn(-c2cc(OC)c(C(F)(F)F)cc2Cl)c1=O |
| 38 to 42 | COC(=O)CCc1ccc(CBr)cc1 |
| 219 | COc1ccc(-c2ccnc(-c3cn(C)c(=O)n3-c3ccc(C(C)(C)C#N)cc3)c2)cc1 |

| melting point [°C] | Compound |
| --- | --- |
| 199 to 201 | NS(=O)(=O)c1nnc(NC(=O)CNC(=O)OCc2ccccc2)s1 |
| 320 to 325 | O=C(CCl)NCc1ccc(-c2cc3c(Nc4ccc(F)c(Cl)c4)ncnc3[nH]2)cc1 |
| 175 | Cc1c(Nc2c(C#N)cnc3sc(CCC(=O)N4CCCC4)cc23)ccc2[nH]ccc12 |
| 35 to 38 | Cc1ccc(S(=O)(=O)NCCOCCO)cc1 |
| 161 to 163 | COCOCc1nc2nccnc2c(=O)[nH]1 |
| > 260 | Cc1cccn2c3c(nc12)-c1ccccc1C(=O)C3=O |
| 168 to 170 | COc1ccc2c(c1)cc(Cc1cc3cccc(OC)c3n1S(=O)(=O)c1ccccc1)n2S(=O)(=O)c1ccccc1 |
| 248 to 250 | O=C(CC1c2ccccc2CCc2ccccc21)Nc1ccc(C(=O)O)cc1 |
| 185 to 186 | O=S(=O)(NCc1ccnc2ccccc12)c1ccc(-c2ccc(Cl)cc2)s1 |
| 230 to 232 | COc1cccc2c(=O)n3ccsc3nc12 |
| 240 | CCn1nc2c(N)nc3ccccc3c2c1CC(C)(C)C |
| 140 to 141 | CCCCOC(=O)c1c(Cn2ccnc2)nc2cc(OC)c(OC)cc2c1-c1ccc(OC)c(OC)c1 |
| 175 to 176 | COc1ccc(Cl)c(NC(=S)N(CCN2C(=O)c3ccccc3C2=O)OCc2ccccc2)c1Cl |
| 147 to 151 | O=C1[C@H]2C[C@H](F)CN2C(=O)N1c1cc(NS(=O)(=O)CCl)c(Cl)cc1F |
| 323 to 325 | C(=Cc1ccc(-c2ccc(C=Cc3ccccc3)cc2)cc1)c1ccccc1 |
| 93.7 to 95.1 | CCOC(=O)C1=Cc2cc(Cl)cc(-c3cccc(OC)c3)c2OC1C(F)(F)F (stereo not given) |
| 140 to 143 | Cc1c(Br)c[nH]c1C=O |
| 142 | Cc1c(CC(C)(C)C(=O)O)n(Cc2ccc(Cl)cc2)c2ccc(Cl)cc12 |
| 118 to 120 | CCCCN(CCCC)C(=O)N1CCc2ccc(S(=O)(=O)NC(=O)NC3CCCCC3)cc2CC1 |
| 269 to 271 | CCc1[nH]c(=O)[nH]c1C(=O)c1ccc(C#N)cc1 |
| 156 to 157 | C#CC1(O)CCC2(C)C(CCC3C2CCC2(C)C(C(=O)CO)CCC32)C1 (stereo not given) |
| 238 to 241 | CNC(=O)C(Cc1ccc(Br)cc1)NC(=O)Nc1n[nH]c(=S)s1 (stereo not given) |
| 190 to 193 | CC(C)(C)c1ccc(Oc2coc(C(=O)O)cc2=O)cc1 |
| 148 | CC(C)(C)OC(=O)Nc1cc(OCC#N)c(-c2ccc(F)cc2)cc1[N+](=O)[O-] |

| Compound | melting point [°C] |
| --- | --- |
| COC1CSC2=C(SC1)C(OC(=O)N1CCN(C)CC1)N(c1ccc(Cl)cn1)C2=O (stereo not given) | 197 |
| NC1CC2CCCC(C1)N2Cc1ccccc1 (stereo not given) | 134 |
| CN(C)C1CCc2[nH]c3c(C(N)=O)cccc3c2C1 (stereo not given) | 252 to 254 |
| CN1CCC(c2c[nH]c3ccc([N+](=O)[O-])cc23)CC1 | 200 to 202 |
